Data reported in publication PMC9260667, “Thioredoxin Reductase Inhibitors as Potential Antitumors: Mercury Compounds Efficacy in Glioma Cells” (Frontiers in Molecular Biosciences, 2022).

Legend:
Trx [1] = molecular target: T1, Trx (Mus musculus, UniProt P10639); format: cell-based; details: cytosol, GL261 exposed 24 h
T1 construct: These lysates were compared to a control group and used to quantify TrxR and Trx activity and expression; These fractions were used to quantify TrxR and Trx activity and expression; endogenous in cells; host or cells: GL261 mouse glioma cells (whole lysate, cytosolic and mitochondrial fractions)
T1 sequence (P10639 whole entry): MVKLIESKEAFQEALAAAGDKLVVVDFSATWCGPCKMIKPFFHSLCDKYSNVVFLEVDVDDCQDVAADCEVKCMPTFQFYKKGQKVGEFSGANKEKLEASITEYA
Experimental: (§1) Total cell lysates were prepared according to previous protocols ([Branco et al., 2014]). 1 × 10^6 cells were plated in […] culture dishes incubated at 37°C until reaching 70–80% confluence. At this point, the culture medium was refreshed and TmHg and EtHg (0.5; 1; 2 µM) were added and incubated at 37°C for 24 h, after which cells were collected by trypsinization and washed with PBS 1x. Subsequently, the pellet was resuspended in lysis buffer (25 mM TrisCl, pH 7.5; 100 mM NaCl; 2.5 mM EDTA; 2.5 mM EGTA; 20 mM NaF, 1 mM sodium orthovanadate, 20 mM sodium pyrophosphate; 20 mM of sodium β-glycerophosphate, 0.5% Triton X-100, and 1 tablet of protease inhibitor cocktail per 10 ml; Roche) vortexed and frozen at −20°C. These lysates were compared to a control group and used to quantify TrxR and Trx activity and expression as described below.
(§2) To obtain the mitochondrial and cytosolic fractions, after exposure to Hg compounds cells were washed and suspended in mitochondrial isolation buffer (210 mM mannitol, 70 mM sucrose, 1 mM EDTA, 10 mM Hepes–NaOH, and pH 7.5), containing protease inhibitor cocktail (Roche). Cells were disrupted with a Teflon pestle and then centrifuged at 600 g for 10 min at 4°C. The resulting nuclear pellets were discarded, and the supernatant was further centrifuged at 13,000 g and 4°C for 15 min, to obtain the mitochondrial pellets and the supernatant soluble fraction. Mitochondrial pellets were treated with cell lysis buffer as described above for whole-cell lysates and the supernatant fraction was further centrifuged at 100,000 g and 4°C for 1 h, to produce the cytosolic fraction ([Branco et al., 2014]). These fractions were used to quantify TrxR and Trx activity and expression as described below.
(§3) The enzymatic activity of TrxR and Trx was determined according to the insulin end-point assay described by [Arnér and Holmgren (2000)] with modifications ([Branco et al., 2014]).
(§4) In parallel, control wells were prepared to contain the same reagents previously mentioned apart from Trx. After the incubation period, 250 µL of a 1 mM DTNB solution in 6 M guanidine-HCL (pH 8.0) was added to wells, and absorbance was measured at 412 nm in a microplate reader (Zenyth 3100, Anthos Labtec Instruments). […] The same procedure was done for the determination of Trx activity, but the samples were incubated with 100 nM of recombinant rat TrxR (IMCO Corp, Sweden) instead of Trx ([Branco et al., 2014]).

Trx [2] = molecular target: T2, Trx (Mus musculus, UniProt P97493); format: cell-based; details: mitochondria, GL261 exposed 24 h
T2 construct: These lysates were compared to a control group and used to quantify TrxR and Trx activity and expression; These fractions were used to quantify TrxR and Trx activity and expression; endogenous in cells; host or cells: GL261 mouse glioma cells (whole lysate, cytosolic and mitochondrial fractions)
T2 sequence (P97493 60-166): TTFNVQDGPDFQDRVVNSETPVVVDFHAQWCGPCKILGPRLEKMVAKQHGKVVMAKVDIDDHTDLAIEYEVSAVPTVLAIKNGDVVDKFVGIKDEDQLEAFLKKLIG
Experimental: as §1, §2, §3, §4

Compound: C[CH2][Hg][S]c1ccccc1C(=O)[O-].[Na+] [TmHg, thimerosal]
- IC50 (Trx [1]): 1200 nM
- IC50 (Trx [2]): 1600 nM
